The text below walks through data of patent US20080255186A1, “Pyrazolo[3,4-B]Pyridine Compound, and Its Use as a Pde4 Inhibitor” (priority 2005, published 2008).

Where “and” joins values, the source holds several entries; their conditions need not be identical. Identical values can stand only once.

This assay has as its system TNF-α (TNF-alpha) production in Human Whole Blood. The experiment in a line: Inhibition of TNF-alpha production in Human Whole Blood (MSD assay). The format is cell-based. On the procedure: This is an optional supplementary test, e.g. for potentially orally-administrable PDE4 inhibitors. Also, as the assay may measure the effect of PDE4 inhibitors after loss by protein binding, it might possibly also be relevant to externally-topically-administrable PDE4 inhibitors as protein-binding-loss of compound is possible during transport through the skin.
Test compounds are prepared as a ca. 10 mM stock solution in DMSO and a dilution series prepared in DMSO with 8 successive 3-fold dilutions, either directly from the 10 mM stock solution or from a more dilute solution in DMSO. The compound is added to assay plates using a Biomek Fx liquid handling robot.
Heparinised blood drawn from normal volunteers is dispensed (ca. 100 μl=ca. 100 ul) into microtitre plate wells containing ca. 0.5 or ca. 1.0 μl (ul, microlitres) of an appropriately diluted test compound solution. […] Plasma TNFα content is determined by electrochemiluminescence assay using the MSD technology (see below), the IGEN technology (see below) or by enzyme linked immunosorbant assay (ELISA) (see below). […]
For the Whole Blood assay, plates are washed after 2 hours shaking with a Skanwasher 300 version B (Skatron Instruments AS. PO Box 8, N-3401 Lier, Norway). […] About 150 μl (ul) of Read Buffer T (2×) is added to the plates, which are then read on a MSD Sector 6000. […]

Regarding `CCc1nc2c(cnn2CC)c(NC2CCOCC2)c1CNC(=O)c1cc(C)no1` [Example 1, N-{[1,6-diethyl-4-(tetrahydro-2H-pyran-4-ylamino)-1H-pyrazolo[3,4-b]pyridin-5-yl]methyl}-3-methyl-5-isoxazolecarboxamide], the IC50 (Homo sapiens, n = about 3 or 4, LPS-stimulated, read-out: Whole Blood, Mean pIC50 (MSD assay) (converted)) is around 398 pM. Where the note is “individual measurements”, the “Whole Blood individual pIC50 test values (MSD assay)” value was ~9.19 and ~9.50 (2×) and > 9.82.
